Read-outs that look alike come from different tables or passages of the source.
Assays:
[1] = system: OATP; conditions: cited from earlier work
[2] = system: MCF-7 xenograft tumors; assay: Nuclear imaging (microPET/microSPECT) of mice with MCF-7 xenograft tumors; format: in vivo; conditions: for visualization of breast tumors in maximal projection images: PC-002 at 48 h post ip, 18F-FDG at 1.5 h post iv, same mouse, FIG. 4
Procedure: FIG. 1 depicts the SPECT/CT image of PC-001 with a nude mouse model of a human breast cancer MCF-7 xenograft in accordance with various embodiments of the present invention. […] SPECT/CT scan was performed at 20 h post injection.
FIG. 3 depicts the transverse PET images of PC-002 at 24 and 48 h post ip injection and ^18F-FDG at 1.5 h post iv injection of the same mouse (20 g) harbored with MCF-7 tumor xenografts in accordance with various embodiments of the present invention.
FIG. 4 depicts the comparison of maximal projection images (MPIs) of PC-002 at 48 h post ip injection and ^18F-FDG at 1.5 h post iv injection of the same mouse (20 g) harbored with MCF-7 tumor xenografts in accordance with various embodiments of the present invention.
FIG. 8 depicts the transverse PET images of PC-003 at 48 and 72 h post ip injection and with the same mouse (20 g) with MCF-7 tumor xenografts in accordance with various embodiments of the present invention.
PC-001, PC-002, and PC-003 were evaluated as nuclear imaging probe using mice with MCF-7 xenograft tumors. […] PC-002/PET images were compared with FDG/PET with same mice.

[3] = system: human and mouse cancer cell lines in vitro and tumor xenografts in vivo; conditions: cited from earlier work
[4] = Blood clearance in nude mice; conditions: mouse, in vivo
Procedure: FIG. 6 depicts the blood clearance curve of PC-002 in nude mice in accordance with various embodiments of the present invention. The T1/2 is 256.9±13.2 min. (N=3).
The half-life (T1/2) of PC-001, PC-002, and PC-003 is 3, 4.3, and 3 hours, respectively. The long blood circulation times results in good images taken at later hours; for example, 24 to 72 hrs post injection.

[5] = system: MCF-7 xenografts; assay: NIR fluorescence imaging, in vivo and ex vivo, of mice with MCF-7 xenografts; conditions: dissected tumor, ex vivo, FIG. 7
Procedure: FIG. 2 depicts the NIR fluorescence image of PC-002 with a nude mouse (20 g) with MCF-7 tumor xenografts in accordance with various embodiments of the present invention. PC-002 (10 nmol) in saline (200 ul) was injected via tail vein. The live fluorescence images were performed at time points (as indicated) post injection using an IVIS Spectrum device (Ex/Em=745/800 nm).
FIG. 7 depicts the correlation of PC-002 uptake and ex vivo images in accordance with various embodiments of the present invention. A MCF-7 xenograft tumor was dissected and cut into two halves.
The optical imaging property of “cold” counterpart of PC-002, comprising stable copper isotope, was evaluated with mice models with MCF-7, C4-2, and ARCaPM tumors. In mice with MCF-7 xenografts, tumor uptake of PC-002 was discernable at 3 hrs post injection and contrast of tumor and normal tissues reached most profound at 24 hrs post injection (FIG. 2).
At 24 hrs post PC-002 injection, a MCF-7 xenograft tumor was dissected and cut into two halves. The viable sections of the tumor in white, right photograph matched with PC-002 fluorescence distribution performed using a Caliper Spectrum device (FIG. 7). The cancer cells in the microscopic image of the H/E stained tumor slice were also overlapped with PC-002 NIR fluorescence of the same tumor slice.

[6] = system: subcutaneous C4-2 or tibial ARCaPM tumors; assay: Ex vivo fluorescent imaging and frozen-section microscopy of harvested tumors and soft tissues; format: in vivo, mice
Procedure: FIG. 11 depicts the harvested bone ARCaPM and subcutaneous C4-2 human prostate tumors embedded with OCT at −25° C. and subjected to frozen sectioning using Cryostat in accordance with various embodiments of the present invention. The frozen sections were fixed and aqueously mounted and imaged using fluorescent microscopy (200× magnification). Note the Dual Nuclear/NIR Agent was actively uptaken into tumor cells.
The PC-002 (2 nmole) was intravenously injected into mouse with either subcutaneous C4-2 or tibial ARCaPM tumors and the mice were subjected to fluorescent imaging using the Xenogen Imaging System at the interval of 1 h, 2 h, 4 h, 8 h, 10 h, 12 h, 24 h and 48 h after the dye injection. The fluorescence signal was found accumulating in subcutaneous C4-2 tumor beginning at 24 hr while the signal was found at 2 hr in the in intratibial ARCaPM tumor in mouse skeleton (FIG. 9).
The harvested bone (ARCaPM) and subcutaneous (C4-2) tumors were embedded with OCT at −25° C. and subjected to frozen sectioning using Cryostat.

[7] = system: xenograft prostate tumors; assay: PET imaging of xenograft prostate tumors; format: in vivo, mice; conditions: FIG. 16
Source text: FIGS. 16A-D illustrate PET imaging of xenograft prostate tumors.
In the past, several attractive PET probes, such as ^18F-2-fluoro-2-deoxy-D-glucose (18 F-FDG) or 111In-tagged antibodies, and more recently the development of smaller sized versions of antibodies such as diabodies and minibodies recognizing PSMA and PSCA, have been proposed to detect PCa; but because of their relative large molecular weight as antibodies, potential host immune response to foreign antibodies, and the lack of Pca specificity using 18F-FDG, application of PET/SPECT probe to detect PCa has not been successful. […] As a small molecule, PC-002 has the advantages of being non-immunogenic, easier to purify and to scale-up, and higher stability for storage and shipping. Because of suboptimal NIR dye signal penetration through deep tissues, we chemically synthesized PC-002, a lead PET 64Cu-DOTA-NIR dye30, to facilitate future translation to the clinic. […] Based on this highly promising result, 64Cu-DOTA-based NIR dye for imaging PCa bone and soft tissue metastases can be used concurrently with 99 mTc-MDP to detect reactive bone activity. For example, this strategy can be used in the robust mouse models of PCa metastasis developed by our laboratory. […]

SMILES: O=C1OC(c2ccc(O)c(S(=O)(=O)O)c2)(c2ccc(O)c(S(=O)(=O)O)c2)c2c(Br)c(Br)c(Br)c(Br)c21 [BSP]
- effect on NIR dye uptake [1]: completely blocked

SMILES: OC[C@H]1OC(O)[C@H]([18F])[C@@H](O)[C@@H]1O (stereo partly drawn) [FDG, 18F-2-fluoro-2-deoxy-D-glucose, reference compound]
- visualization of breast tumors in maximal projection images [2]: only barely seen

SMILES: CC1(C)C(=CC=C2CCCC(C=CC3=[N+](CCCCS(=O)(=O)[O-])c4ccccc4C3(C)C)=C2Cl)N(CCCCS(=O)(=O)[O-])c2ccccc21.[Na+] [IR783]
- uptake and retention by cancer cell lines and tumor xenografts [3]: uptake and retention

SMILES: CCCN1/C(=C/C=C2\CCCC(/C=C/C3=[N+](CCC)c4ccccc4C3(C)C)=C2Cl)C(C)(C)c2ccccc21.[I-] [IR-780]
- uptake and retention by cancer cell lines and tumor xenografts [3]: uptake and retention

SMILES: CC1(C)C(/C=C/C2=C(Cl)C(=C/C=C3/N(CCCCCC(=O)NCCCCC(NC(=O)C[N+]45CC[N+]6(CC(=O)[O-])CC[N+]7(CC(=O)[O-])CC[N+](CC(=O)O)(CC4)[64Cu-2]765)C(=O)O)c4ccccc4C3(C)C)/CCC2)=[N+](CCCCCC(=O)O)c2ccccc21 (centres unmarked) [PC-002]
- half-life ([4]; half-life (T1/2), blood clearance): 4.3 h
- half-life ([4]; nude mice, N=3, FIG. 6, read-out: blood clearance T1/2): 4.28 ± 0.22 h
- SUV of MCF-7 tumor relative to hind leg muscles ([2]; FIG. 5): 6 times
- visualization of breast tumors in maximal projection images [2]: clearly visualized
- suitability as nuclear imaging probe ([2]; microPET or microSPECT): suitable candidates for molecular imaging of cancer
- tumor contrast and selectivity compared with FDG/PET ([2]; same mice, FIGS. 3 and 4): higher tumor contrast and selectivity than FDG
- association of NIR and PC-002 signals with tumor tissue type [5]: associated with viable and not necrotic tissues
- uptake in frozen sections, fluorescent microscopy ([6]; 200× magnification, FIG. 11): selectively uptaken in cancer cells
- uptake and retention, ex vivo fluorescent imaging ([6]; harvested at 24 hrs post injection, FIG. 10): in tumor only
- selectivity for tumor xenografts [7]: remarkable selectivity

Source: patent US9610370B2, “Compositions and methods for tumor imaging and targeting by a class of organic heptamethine cyanine dyes that possess dual nuclear and near-infrared properties” (University of Virginia Patent Foundation, priority 2011, dated 2017)
